The record followed here is patent publication US10173991B2, “Sulfone amide linked benzothiazole inhibitors of endothelial lipase” (BRISTOL-MYERS SQUIBB COMPANY, priority 2014, dated 2019).

In this assay the target is Endothelial lipase (EL) (Homo sapiens (Human), UniProt Q9Y5X9). Put plainly: Endothelial lipase (EL) enzymatic assay with fluorescent substrate A10070 in DMPG vesicles. The assay is classed as biochemical. Put shortly: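 Substrate A10070 sits in sonicated DMPG vesicles at 0.11 mole fraction. Lipase and compound preincubated 30 min, 37° C, in HEPES pH 8.0 buffer with CaCl2.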
Sequence of Endothelial lipase (EL) (Q9Y5X9 21-500): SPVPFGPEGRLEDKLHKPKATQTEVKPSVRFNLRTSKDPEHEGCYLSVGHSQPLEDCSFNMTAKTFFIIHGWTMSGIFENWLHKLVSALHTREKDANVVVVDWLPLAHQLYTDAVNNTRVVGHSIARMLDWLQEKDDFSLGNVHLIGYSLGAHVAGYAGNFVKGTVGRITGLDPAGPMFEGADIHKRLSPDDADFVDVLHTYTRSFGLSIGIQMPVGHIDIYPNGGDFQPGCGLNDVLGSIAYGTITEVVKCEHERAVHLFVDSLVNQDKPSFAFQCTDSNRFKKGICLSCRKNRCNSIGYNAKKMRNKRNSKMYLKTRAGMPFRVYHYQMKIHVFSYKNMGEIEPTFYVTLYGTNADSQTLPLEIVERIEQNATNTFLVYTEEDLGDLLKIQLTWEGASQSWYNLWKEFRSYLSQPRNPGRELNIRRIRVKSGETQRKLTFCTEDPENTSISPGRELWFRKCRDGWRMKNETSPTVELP
The molecule `COCCS(=O)(=O)C(C(=O)NCC(=O)NC1CC1)c1nc2cc(-c3ccc(F)cc3)ccc2s1` (centres unmarked) [Example 135, N-[(cyclopropyl-carbamoyl)methyl]-2-[5-(4-fluorophenyl)-1,3-benzothiazol-2-yl]-2-(2-methoxyethane-sulfonyl) acetamide] came in with an IC50 of 49 nM.
In the case of `O=C(CNC(=O)C(c1nc2cc(F)c(-c3ccn(Cc4ccccc4)c(=O)c3)cc2s1)S(=O)(=O)CCC(F)(F)F)NC1CC1` (centres unmarked) [Example 136, 2-[6-(1-benzyl-2-oxo-1,2-dihydropyridin-4-yl)-5-fluoro-1,3-benzothiazol-2-yl]-N-[(cyclopropyl-carbamoyl)methyl]-2-(3,3,3-trifluoropropane-sulfonyl) acetamide] it was 6 nM; in that of `O=C(CNC(=O)C(c1nc2cc(F)c(-c3cccc(-n4cccn4)c3)cc2s1)S(=O)(=O)CCC(F)(F)F)NC1CC1` (centres unmarked) [Example 137, N-[(cyclopropyl-carbamoyl)methyl]-2-{5-fluoro-6-[3-(1H-pyrazol-1-yl)phenyl]-1,3-benzothiazol-2-yl}-2-(3,3,3-trifluoropropane-sulfonyl) acetamide], 1 nM.
In the case of `O=C(CNC(=O)C(c1nc2cc(F)c(-c3ccc(-n4cccn4)cc3)cc2s1)S(=O)(=O)CCC(F)(F)F)NC1CC1` (centres unmarked) [Example 138, N-[(cyclopropyl-carbamoyl)methyl]-2-{5-fluoro-6-[4-(1H-pyrazol-1-yl)phenyl]-1,3-benzothiazol-2-yl}-2-(3,3,3-trifluoropropane-sulfonyl) acetamide] it was 6 nM; in that of `COCCS(=O)(=O)C(C(=O)NCC(=O)NC1CC1)c1nc2cc(F)c(-c3ccc(-n4cccn4)cc3)cc2s1` (centres unmarked) [Example 139, N-[(cyclopropyl-carbamoyl)methyl]-2-{5-fluoro-6-[4-(1H-pyrazol-1-yl)phenyl]-1,3-benzothiazol-2-yl}-2-(2-methoxyethane-sulfonyl) acetamide], 2 nM.
In the case of `COCCS(=O)(=O)C(C(=O)NCC(=O)NC1CC1)c1nc2cc(F)c(-c3cnc(OC)c(N)c3)cc2s1` (centres unmarked) [Example 140] it was 12 nM; in that of `COCCS(=O)(=O)C(C(=O)NCC(=O)NC1CC1)c1nc2cc(F)c(-c3cccc(-n4cccn4)c3)cc2s1` (centres unmarked) [Example 141, N-[(cyclopropyl-carbamoyl)methyl]-2-{5-fluoro-6-[3-(1H-pyrazol-1-yl)phenyl]-1,3-benzothiazol-2-yl}-2-(2-methoxyethane-sulfonyl) acetamide], 2 nM.
Take `O=C(CNC(=O)C(c1nc2cc(F)c(-c3ccc(-n4cnnn4)cc3)cc2s1)S(=O)(=O)CCC(F)(F)F)NC1CC1` (centres unmarked) [Example 142, N-[(cyclopropyl-carbamoyl)methyl]-2-{5-fluoro-6-[4-(1H-1,2,3,4-tetrazol-1-yl)phenyl]-1,3-benzothiazol-2-yl}-2-(3,3,3-trifluoropropane-sulfonyl) acetamide]: the concentration for half-maximal inhibition (IC50) was 5 nM.
In the case of `O=C(CNC(=O)C(c1nc2cc(F)c(-c3cccc(-c4cc[nH]n4)c3)cc2s1)S(=O)(=O)CCC(F)(F)F)NC1CC1` (centres unmarked) [Example 143, N-[(cyclopropyl-carbamoyl)methyl]-2-{5-fluoro-6-[3-(1H-pyrazol-3-yl)phenyl]-1,3-benzothiazol-2-yl}-2-(3,3,3-trifluoropropane-sulfonyl) acetamide] it was 3 nM; in that of `O=C(CNC(=O)C(c1nc2cc(F)c(-c3ccc(-c4ccn[nH]4)cc3)cc2s1)S(=O)(=O)CCC(F)(F)F)NC1CC1` (centres unmarked) [Example 144, N-[(cyclopropyl-carbamoyl)methyl]-2-{5-fluoro-6-[4-(1H-pyrazol-5-yl)phenyl]-1,3-benzothiazol-2-yl}-2-(3,3,3-trifluoropropane-sulfonyl) acetamide], 1 nM.
Molecule `COCCS(=O)(=O)C(C(=O)NCC(=O)NC1CC1)c1nc2cc(F)c(-c3ccc(-c4ccno4)cc3)cc2s1` (centres unmarked) [Example 145, N-[(cyclopropyl-carbamoyl)methyl]-2-{5-fluoro-6-[4-(1,2-oxazol-5-yl)phenyl]-1,3-benzothiazol-2-yl}-2-(2-methoxyethane-sulfonyl) acetamide] gave an IC50 of 3 nM.
With `COCCS(=O)(=O)C(C(=O)NCC(=O)NC1CC1)c1nc2cc(F)c(-c3ccc(-c4nn[nH]n4)cc3)cc2s1` (centres unmarked) [Example 146, N-[(cyclopropyl-carbamoyl)methyl]-2-{5-fluoro-6-[4-(2H-1,2,3,4-tetrazol-5-yl)phenyl]-1,3-benzothiazol-2-yl}-2-(2-methoxyethane-sulfonyl)acetamide], the IC50 came to 6 nM.
In the case of `COCCS(=O)(=O)C(C(=O)NCC(=O)NC1CC1)c1nc2cc(F)c(-c3ccc(-c4nnc(C)o4)cc3)cc2s1` (centres unmarked) [Example 147, N-[(cyclopropyl-carbamoyl)methyl]-2-{5-fluoro-6-[4-(5-methyl-1,3,4-oxadiazol-2-yl)phenyl]-1,3-benzothiazol-2-yl}-2-(2-methoxyethane-sulfonyl) acetamide] it was 4 nM.
Consider `COCCS(=O)(=O)C(C(=O)NCC(=O)NC1CC1)c1nc2cc(C)c(-c3ccc4c(cnn4C)c3)cc2s1` (centres unmarked) [Example 148, N-[(cyclopropyl-carbamoyl)methyl]-2-(2-methoxyethane-sulfonyl)-2-[5-methyl-6-(1-methyl-1H-indazol-5-yl)-1,3-benzothiazol-2-yl] acetamide], for which the IC50 amounted to 2 nM.
Under `COCCS(=O)(=O)C(C(=O)NCC(=O)NC1CC1)c1nc2cc(F)c(-c3ccc4[nH]c(=O)ccc4c3)cc2s1` (centres unmarked) [Example 149, N-[(cyclopropyl-carbamoyl)methyl]-2-[5-fluoro-6-(2-oxo-1,2-dihydroquinolin-6-yl)-1,3-benzothiazol-2-yl]-2-(2-methoxyethane-sulfonyl) acetamide] stands 2 nM; under `COCCS(=O)(=O)C(C(=O)NCC(=O)NC1CC1)c1nc2cc(F)c(-c3ccc4c(c3)CNC4=O)cc2s1` (centres unmarked) [Example 150, N-[(cyclopropyl-carbamoyl)methyl]-2-[5-fluoro-6-(1-oxo-2,3-dihydro-1H-isoindol-5-yl)-1,3-benzothiazol-2-yl]-2-(2-methoxyethane-sulfonyl) acetamide], 2 nM.
In turn, `COCCS(=O)(=O)C(C(=O)NCC(=O)NC1CC1)c1nc2cc(C)c(-c3ccc4[nH]c(=O)ccc4c3)cc2s1` (centres unmarked) [Example 151, N-[(cyclopropyl-carbamoyl)methyl]-2-(2-methoxyethane-sulfonyl)-2-[5-methyl-6-(2-oxo-1,2-dihydroquinolin-6-yl)-1,3-benzothiazol-2-yl]acetamide] had an IC50 of 2 nM.
The molecule `COCCS(=O)(=O)C(C(=O)NCC(=O)NC1CC1)c1nc2cc(F)c(-c3ccc4c(cnn4C)c3)cc2s1` (centres unmarked) [Example 152, N-[(cyclopropyl-carbamoyl)methyl]-2-[5-fluoro-6-(1-methyl-1H-indazol-5-yl)-1,3-methoxyethane-sulfonyl) acetamide] came in with an IC50 of 3 nM.
Under `COCCS(=O)(=O)C(C(=O)NCC(=O)NC1CC1)c1nc2cc(F)c(-c3ccc4c(=O)n(C)ccc4c3)cc2s1` (centres unmarked) [Example 153, N-[(cyclopropyl-carbamoyl)methyl]-2-[5-fluoro-6-(2-methyl-1-oxo-1,2-dihydro-isoquinolin-6-yl)-1,3-benzothiazol-2-yl]-2-(2-methoxyethane-sulfonyl) acetamide] stands 3 nM; under `COCCS(=O)(=O)C(C(=O)NCC(=O)NC1CC1)c1nc2cc(F)c(-c3ccc4c(c3)C(=O)NC4)cc2s1` (centres unmarked) [Example 154, N-[(cyclopropyl-carbamoyl)methyl]-2-[5-fluoro-6-(3-oxo-2,3-dihydro-1H-isoindol-5-yl)-1,3-benzothiazol-2-yl]-2-(2-methoxyethane-sulfonyl) acetamide], 5 nM; under `COCCS(=O)(=O)C(C(=O)NCC(=O)NC1CC1)c1nc2cc(F)c(-c3cnc(C4CC4)nc3)cc2s1` (centres unmarked) [Example 155, N-[(cyclopropyl-carbamoyl)methyl]-2-[6-(2-cyclopropyl-pyrimidin-5-yl)-5-fluoro-1,3-benzothiazol-2-yl]-2-(2-methoxyethane-sulfonyl) acetamide], 7 nM.
Take `COCCS(=O)(=O)C(C(=O)NCC(=O)NC1CC1)c1nc2cc(F)c(-c3cnc(C)nc3)cc2s1` (centres unmarked) [Example 156, N-[(cyclopropyl-carbamoyl)methyl]-2-[5-fluoro-6-(2-methylpyrimidin-5-yl)-1,3-benzothiazol-2-yl]-2-(2-methoxyethane-sulfonyl) acetamide]: the IC50 turned out to be 11 nM.
For the molecule `COCCS(=O)(=O)C(C(=O)NCC(=O)NC1CC1)c1nc2cc(C(F)(F)F)c(-c3cccc(C(=O)N(C)C)c3)cc2s1` (centres unmarked) [Example 157, 3-[2-({[(cyclopropyl-carbamoyl)methyl]carbamoyl}(2-methoxyethane-sulfonyl)methyl)-5-(trifluoromethyl)-1,3-benzothiazol-6-yl]-N,N-dimethylbenzamide], the IC50 was found to be 11 nM.
In the case of `COCCS(=O)(=O)C(C(=O)NCC(=O)NC1CC1)c1nc2cc(F)c(-c3ccc(C)nc3)cc2s1` (centres unmarked) [Example 158, N-[(cyclopropyl-carbamoyl)methyl]-2-[5-fluoro-6-(6-methylpyridin-3-yl)-1,3-benzothiazol-2-yl]-2-(2-methoxyethane-sulfonyl) acetamide], the IC50 was found to be 11 nM.
The molecule `COCCS(=O)(=O)C(C(=O)NCC(=O)NC1CC1)c1nc2cc(F)c(-c3ccc(C4CC4)nc3)cc2s1` (centres unmarked) [Example 159, N-[(cyclopropyl-carbamoyl)methyl]-2-[6-(6-cyclopropyl-pyridin-3-yl)-5-fluoro-1,3-benzothiazol-2-yl]-2-(2-methoxyethane-sulfonyl) acetamide] came in with an IC50 of 12 nM.
Molecule `COCCS(=O)(=O)C(C(=O)NCC(=O)NC1CC1)c1nc2cc(F)c(-c3ccc(=O)n(C(C)C)c3)cc2s1` (centres unmarked) [Example 160, N-[(cyclopropyl-carbamoyl)methyl]-2-{5-fluoro-6-[6-oxo-1-(propan-2-yl)-1,6-dihydropyridin-3-yl]-1,3-benzothiazol-2-yl}-2-(2-methoxyethane-sulfonyl) acetamide] showed an IC50 of 12 nM.

The IC50 is the concentration that inhibits the measured activity by half.
